Values after ≈ are worked out from the molar mass of the structure shown.
Tests used:
[1] = food effect on PK, single 200 mg, standard meal vs fasted; format: in vivo, human; conditions: single 200 mg with a standard meal; in house data
Text: (§1) The exposure of CKD-519 increased with the dose. However, maximum plasma concentration (Cmax) and area under the plasma concentration-time curve (AUC) normalized by dose decreased with each incremental dose.

CETP activity [2] = target: T1, CETP activity (Homo sapiens, UniProt P11597); assay: food effect on inhibition of CETP activity, single 200 mg; format: in vivo
T1 construct: from tissue; host or cells: plasma of healthy subjects (sodium heparin tubes)
T1 sequence (P11597 18-493): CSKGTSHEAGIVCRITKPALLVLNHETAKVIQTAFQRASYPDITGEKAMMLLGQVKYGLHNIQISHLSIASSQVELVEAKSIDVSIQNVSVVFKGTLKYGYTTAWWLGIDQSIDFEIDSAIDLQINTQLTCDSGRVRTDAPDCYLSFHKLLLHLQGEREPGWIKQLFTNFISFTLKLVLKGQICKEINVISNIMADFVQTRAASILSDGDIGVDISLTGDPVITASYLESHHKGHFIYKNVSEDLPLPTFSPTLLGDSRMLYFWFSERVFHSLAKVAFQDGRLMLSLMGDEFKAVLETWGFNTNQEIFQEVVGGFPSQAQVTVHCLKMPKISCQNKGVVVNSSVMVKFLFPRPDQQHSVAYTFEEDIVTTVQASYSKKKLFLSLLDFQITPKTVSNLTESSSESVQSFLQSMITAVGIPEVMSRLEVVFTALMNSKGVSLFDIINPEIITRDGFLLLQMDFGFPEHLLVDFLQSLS
Text: as §1

[3] = multiple-dose study in healthy male subjects, plasma PK and population PK model; format: in vivo, human; conditions: for CL/F: observed
Method: A randomized, double-blinded, placebo-controlled, multiple-dose, and dose-escalation study was conducted in a total of 32 healthy male subjects aged 19–55 years in four cohorts (50, 100, 200, and 400 mg). Six subjects were assigned to CKD-519, and two to matching placebo in each cohort. Dose escalation to the next cohort was done after the safety profile was reviewed. CKD-519 was available as two dosage forms of 50 and 100 mg tablets.
Enrolled subjects were admitted on day −1. CKD-519 or placebo was administered to randomly assigned subjects for 14 days with a standard breakfast meal (700–800 kcal, containing 5–25% fat content). All subjects were hospitalized until completion of blood sampling for PK and PD (from day −1 to day 21). All meals were nutritionally equivalent and provided at the same time scheduled throughout the study period. The participants were not permitted to take any drugs or herbal medications and also were restricted from consuming any other snacks or beverages during the study.
(§2) Blood samples for PK or PD were collected on days 1 (0, 1, 2, 3, 4, 5, 6, 7, 8, 10, 12, 18, and 24 h) and 14 (0, 1, 2, 3, 4, 5, 6, 7, 8, 10, 12, 18, 24, 32, 48, 72, 96, 120, 144, and 168 h), along with daily sampling on days 2 through 13 to determine trough levels of drug concentration, CETP activity, and lipid values. Each blood sample for PK and CETP activity was collected in sodium heparin tubes and then centrifuged at 1900 g for 10 min. Their aliquots were stored at or below […] until analysis. The plasma concentrations of CKD-519 were measured using a validated high-performance liquid chromatography-tandem mass spectrometry assay. A 100 μL plasma sample was mixed with 10 μL internal standard working solution and 300 μL acetonitrile. After centrifugation, 3 μL supernatant was injected into the column. The lower limit of quantification was 1.0 ng/mL. The calibration curve was linear over the concentration range of 1.0–2000 ng/mL. The precision of the assay was less than 2.7% coefficient of variation, and the accuracy of the assay was within the range of 93.7–113.0% [5]. Plasma CETP activity was measured by using a fluorescent assay method previously described. HDL-C and LDL-C were measured with an ADIVA 1650 Clinical Chemistry System (Siemens Medical Solutions, Tarrytown, NY, USA).
PK and PD models were developed using NONMEM version 7.3 (Icon Development Solutions, Ellicott City, MD, USA) using a first-order conditional estimation with interaction method (FOCE-INTER). R (version 3.6.1, R Foundation for Statistical Computing, Vienna, Austria) was used for data preparation, graphical analysis, and model diagnostics. The population PK-PD model was developed sequentially. The PK model was initially developed, and then the CETP model (PK-PD) was developed using individual PK parameters estimated from the final PK model. Finally, the cholesterol (HDL-C or LDL-C) models were developed using the individual CETP parameters estimated from the final CETP model.
Inter-individual variability (IIV) for each parameter in all models was assumed to follow a Gaussian distribution with a mean of 0 and variance of ω^2. For the PK model, once the IIV term was selected, the covariance between the terms was assessed using an omega block on selected parameters. As for the residual error, additive, proportional, and combined models were tested. The model was selected after a comparison of several criteria such as a decrease in the objective function value (OFV), completion of the estimation and covariance routines, the precision of the parameter and error estimates, and visual exploration of the diagnostic plots.
Several disposition models were assessed, including 1-, 2-, and 3- compartment structural models. Absorption was evaluated with first-order, zero-order (with and without lag time), Weibull-type, and Erlang’s model. The bioavailability was assessed about the effects of the dose and time. […]

Plasma CETP activity = target: T2, Plasma CETP activity (Homo sapiens, UniProt P11597); assay: population CETP model (turnover model), plasma CETP activity by fluorescent assay; format: in vivo
T2 construct: from tissue; host or cells: plasma of healthy subjects (sodium heparin tubes)
T2 sequence (P11597 18-493): T1 sequence (P11597 18-493)
Method: as §2
Since CETP inhibition is closely related to HDL-C increase and LDL-C decrease, the CETP model was included as a link between the PK model of CKD-519 and cholesterol (HDL-C and LDL-C) models. For the CETP model, CETP activity was used as a dependent variable as this was the primary parameter of interest.
The turnover model was used to describe the relationship between CETP activity and plasma concentration of CKD-519. The effect of CKD-519 was applied in the model as stimulating the elimination of CETP activity. Because the CETP activity increased over time in the placebo group, the response of placebo treatment was incorporated into the CETP model. The effects of CKD-519 and placebo treatment were evaluated as linear, Emax, or sigmoid Emax relationships. […]

HDL-C = assay: population HDL-C model (turnover, sigmoid Emax); format: in vivo, human
Method: as §2
(§3) For each of the HDL-C and LDL-C model development, their clinical laboratory results were used. Their responses by changing CETP activity were described using turnover models. Taking into account the physiological mechanism of CETP on lipid metabolism, the CETP effect was incorporated into the model as a stimulatory function of HDL-C elimination and an inhibitory function of LDL-C elimination. The effect of CETP activity on HDL-C or LDL-C was evaluated using linear, Emax, or sigmoid Emax models.
(§4) HDL-C and LDL-C models were best described with the sigmoid Emax function. The LDL-C in the placebo group tended to increase gradually over time. Thus, a linear model was used to describe the placebo effect on LDL-C after comparison with Emax and sigmoid Emax models. The changes in HDL-C and LDL-C concentration were described as follows:(7) dHDL/dt=Ksyn−Kdeg×AHDL×(1+RESCETP) (8) dLDL/dt=Ksy×(1+PLA)−Kdeg×ALDL×(1−RESCETP) (9) RESCETP=CETPactivityγ×Rmax/CETPactivityγ+R50γ (10) PLA=β×time where Ksyn and Ksy are the zero-order production rate constant, Kdeg is the first-order elimination rate constant, RESCETP is the change in CETP activity, Rmax is the maximal effect of CETP activity on HDL-C and LDL-C response, R50 is the CETP activity required to attain 50% maximal response of HDL-C and LDL-C, PLA is the placebo effect, and β is the proportionality constant.

LDL-C = assay: population LDL-C model (turnover, sigmoid Emax); format: in vivo, human
Method: as §2, §3, §4

serum CETP concentration = serum CETP concentration during multiple dosing; format: in vivo, human; conditions: time-dependent, in house data
Text: As reported earlier in other CETP inhibitors, the administration of CKD-519 in this study led to an approximately 2.5 fold increase in serum CETP concentration in a time-dependent manner (in house data). In the placebo group, serum CETP concentration increased by about 30% after two weeks (in house data). It has been reported that transcription of the CETP gene is under the control of extrinsic and intrinsic factors. Dietary cholesterol up-regulates CETP expression in human CETP-transgenic mice, and plasma cholesterol levels also correlate with CETP mass in humans. The increase in CETP activity in the placebo group might be due to increased serum CETP mass because dietary cholesterol regularly served during hospitalization for three weeks could have promoted CETP expression. […] Linear, Emax, and sigmoid Emax models were tested to explain CETP activity increase in the placebo group, and the Emax model by time best described the placebo effect.

[4] = cited from earlier work
[5] = design: method as in PMID 30107219, PMID 27895466; conditions: at pH 7.4; cited from earlier work
CETP activity [6] = target: T1, CETP activity; design: method as in PMID 27895466; conditions: healthy subjects, cited from earlier work
[7] = final population PK model estimate

## COc1cc(F)c(C(C)C)cc1C1=C(CN2C(=O)O[C@H](c3cc(C(F)(F)F)cc(C(F)(F)F)c3)[C@@H]2C)CC(C)(C)CC1 [CKD-519]
[1]
  increase in AUC relative to the fasted state: 5.8 fold
  increase in Cmax relative to the fasted state: 8.7 fold
CETP activity [2]; fasted group
  inhibitory effect of CETP activity: 81.5%
CETP activity [2]; fed group
  inhibitory effect of CETP activity: 91.4%
[3]; 50 mg vs 200 mg
  increase of CL/F from 50 mg to 200 mg: approximately 2.5 fold
[3]; 400 mg group
  increase of AUC after multiple administration compared to the first dose: three-fold increase
[3]; 50, 100 and 200 mg dose groups
  α1, proportionality constant for fraction of first-order absorption process depending on time: 0.002
[3]; CV%
  ωBmax, interindividual variability on BMAX: 28.2%
  ωCL/F, interindividual variability on CL/F: 15.6%
  ωKtr, interindividual variability on Ktr: 14.1%
  ωV3/F, interindividual variability on V3/F: 58.1%
[3]; all dose groups
  Tmax: approximately 1 h
[3]; [7]
  Ka, absorption rate constant: 1.09 h⁻¹
  V2/F, volume of peripheral compartment 1: 45.4 L
  V3/F, volume of peripheral compartment 2: 1006.0 L
  V/F, volume of central compartment: 11.4 L
[3]; final population PK model estimate, 50–400 mg daily for 14 days with standard meal
  CL/F, clearance: 6.4 L/h
[3]; final population PK model estimate, Erlang's absorption, five transit compartments
  Ktr, transit rate constant: 1.10 h⁻¹
[3]; 50 mg
  CL/F: 11.98 L/h
[3]; 200 mg
  CL/F: 30.04 L/h
[3]; 400 mg
  CL/F: 23.98 L/h
[3]; terminal, across dose groups
  half-life: 145.4 to 166.2 h
Plasma CETP activity; CETP model estimate
  EC50, plasma drug concentration of half-maximal effect on CETP activity: 0.587 µg/mL
Plasma CETP activity; CETP model estimate, stimulation of Kout
  Emax, maximal effect of plasma drug concentration on CETP activity: 18.2
Plasma CETP activity; CV%
  ωEmax, interindividual variability on Emax: 39.5%
HDL-C; HDL-C model estimate
  R50, CETP activity of half-maximal effect on HDL-C response: 185.0 pmol
  Rmax, maximal effect of CETP activity on HDL-C response: 1.5
  γ, steepness of the CETP activity versus HDL-C relationship: 2.1
HDL-C; estimated
  maximal increase in HDL-C: 160–190%
LDL-C; CV%, LDL-C model
  ωGAM, interindividual variability on γ: 50.9%
LDL-C; LDL-C model estimate
  R50, CETP activity of half-maximal effect on LDL-C response: 80.7 pmol
  Rmax, maximal effect of CETP activity on LDL-C response: 0.8
  γ, steepness of the CETP activity versus LDL-C relationship: 2.2
LDL-C; estimated
  maximal decrease in LDL-C: 47–66%
Serum CETP concentration
  increase in serum CETP concentration: approximately 2.5 fold
[4]
  aqueous solubility: less than 1.0 μg/mL
[4]; in vitro solubility test
  solubility in deionized water: insoluble
  solubility in ethyl alcohol: freely soluble
[5]
  LogP: > 5.0
CETP activity [6]; single administration 25–400 mg
  maximum inhibitory effect of CETP activity: 63–83%
CETP activity [6]; single administration
  EC50 (CETP activity): 0.0173 µg/mL (≈ 0.0288 µM)

Source: PMC7356970, “A Population Pharmacokinetic and Pharmacodynamic Model of CKD-519” (Pharmaceutics, 2020)
